# Where two headings read alike, the source gives them in different places. Positions of bridges follow the written chain, without caps; N, C: chain ends. Non-standard residues stand in square brackets, D forms with d. Residues, ends and D or L forms follow the SMILES beside them. Abu = CC[C@H](N)C(=O)O
# Tests used:
# [1] = format: cell-based, human
# Description: (§1) The toxicity of each peptide was evaluated on human cell lines using a resazurin assay as previously described. Human lung epithelial cells BEAS-2B (ATCC CRL-9609), liver cells HepG2 (ATCC HB-8065), and kidney cells A498 (ATCC HTB-44) were used. All cells were cultured in Dulbecco's modified essential medium (DMEM) supplemented with 10% heat-inactivated fetal calf serum (FBS, Thermo Fisher Scientific), and 1% L-glutamine (Thermo Fisher Scientific) (DMEM^FBS) at 37 °C in a 5% CO2 incubator to subconfluent concentrations. Cells were detached with trypsin–EDTA solution (Thermo Fisher Scientific), and around 1 × 10^4 cells/well were seeded in 96-well flat-bottom microplates (Greiner Bio-One) with a lid, and cultured for additional 48–72 h at 37 °C and 5% CO2 until cell confluence. The medium was removed, and 100 µL of serial two-fold dilutions of the peptides in DMEM^FBS were added to each well. Following a 48 h-incubation period at 37 °C and 5% CO2, cell viability was evaluated using the resazurin assay as described above. Fluorescence of the resazurin metabolite resorufin (λex/λem = 530/590 nm) was measured after 2 h incubation at 37 °C and 5% CO2 in the dark, with a microplate reader (Biotek, Synergy Mx, Colmar, France). The cytotoxic concentration of peptide leading to 50% cell death as compared to the control was defined as the CC50, and was determined by fitting the RFU% sigmoidal dose–response curves in Kaleidagraph 4.2 software (Synergy Software). All experiments were conducted in triplicate.
# A498 cells = test: Cytotoxic assay on human cells (resazurin); format: cell-based
# Description: as §1
# human erythrocytes = format: cell-based; details: for HC10 / HC50: red cells of human, 1 h
# Description: The hemolytic activity of each peptide was determined as previously described. Briefly, human erythrocytes (red blood cells, hRBC; Divbioscience, Ulvenhout, Netherlands) were washed 2-times with sterile phosphate buffered saline (PBS; Thermo Fisher Scientific) and pelleted by centrifugation at 800 rpm for 5 min; then resuspended in DMEM^FBS to a final erythrocyte concentration of 8% (v/v). Then, 100 µL of this hRBC solution was distributed to each well of sterile 96-well flat-bottom microplates (Greiner Bio-One) containing serial two-fold dilutions of arenicin, arenicin-Abu derivative or controls in DMEM^FBS to a final volume of 200 µL. After 1 h incubation at 37 °C, microplates were centrifuged at 800 rpm for 5 min. Then, 100 µL of supernatant were carefully transferred to a new 96-well microplate, and OD405 corresponding to the release of hemoglobin was measured using a microplate reader (Biotek, Synergy Mx, Colmar, France). DMEM^FBS and Triton-X100 at 0.1% (v/v) were used as negative (i.e., 0% hemolysis) and positive (i.e., 100% hemolysis) controls, respectively. The concentration of peptide leading to 10% and 50% of hemolysis compared to the positive control was defined as the HC10 and HC50, respectively, and was determined by fitting the dose–response curves in Kaleidagraph 4.2 software (Synergy Software). All experiments were done in triplicate.
# M. abscessus S and R = format: cell-based, Mycobacterium abscessus
# Description: Mycobacterium abscessus S and R strains (CIP 104536^ T) were grown in Middlebrook 7H9 medium supplemented with 0.05% (v/v) Tween 80, 0.2% (v/v) glycerol and 10% (v/v) oleic acid–albumin–dextrose–catalase (OADC enrichment; BD Difco) (7H9-S^OADC) at 37 °C under stirring (200 rpm). We used Ar-1 (RWC^3VYAYVRVRGVLVRYRRC^20W) and Ar-1-Abu, in which the cysteines in position 3 and 20 were replaced by alpha-amino-n-butyric acid (Abu) residues. […]
# For determining the antimicrobial activity of the different peptides, the Middlebrook 7H9 broth microdilution method was used in sterile 96-well flat-bottom Greiner Bio-One polypropylene microplates with lid (Thermo Fisher Scientific) using the resazurin microtiter assay (REMA). […] Fluorescence of the metabolite resorufin (λex/λem = 530/590 nm) was measured using a Tecan Spark 10 M ™ multimode microplate reader (Tecan Group Ltd, France). Relative fluorescence units (RFU) were defined as: RFU% = (test well FU/mean FU of control B wells) × 100. MIC50 and MIC90 values were determined by fitting the RFU% sigmoidal dose–response curves in Kaleidagraph 4.2 software (Synergy Software, Reading, PA). […]
# [2] = format: cell-based, human; remark: listed apart in the source
# Description: as §1
# [3] = test system: M. abscessus CIP 104536 T S variant; test: microbe, parasite or virus in culture; format: cell-based, Mycobacterium abscessus
# Description: (§2) Mycobacterium abscessus S and R strains (CIP 104536^ T) were grown in Middlebrook 7H9 medium supplemented with 0.05% (v/v) Tween 80, 0.2% (v/v) glycerol and 10% (v/v) oleic acid–albumin–dextrose–catalase (OADC enrichment; BD Difco) (7H9-S^OADC) at 37 °C under stirring (200 rpm). We used Ar-1 (RWC^3VYAYVRVRGVLVRYRRC^20W) and Ar-1-Abu, in which the cysteines in position 3 and 20 were replaced by alpha-amino-n-butyric acid (Abu) residues. We also tested Ar-2 (RWC^3VYAYVRIRGVLVRYRRC^20W), Ar-2-Abu (cysteines 3 and 20 replaced), Ar-3 (GFC^3WYVC^7VYRNGVRVC^16YRRC^20N), Ar-3-Abu (all four cysteines were replaced by Abu), Ar-3(3–20) (cysteines 7 and 16 replaced), and Ar-3(7–16) (cysteines 3 and 20 replaced). All arenicins and arenicin-Abu derivatives were obtained from GenScript (Piscataway, NJ, USA) with purity higher than 95%.
# (§3) For determining the antimicrobial activity of the different peptides, the Middlebrook 7H9 broth microdilution method was used in sterile 96-well flat-bottom Greiner Bio-One polypropylene microplates with lid (Thermo Fisher Scientific) using the resazurin microtiter assay (REMA). Briefly, Mycobacterium abscessus was cultured up to mid log-phase (OD600 ~ 1.5–2) and diluted to a cell density of 5 × 10^6 cells/mL in 7H9-S^OADC. Then, 100 µL of this above inoculum was distributed to each well containing serial two-fold dilutions of arenicin, arenicin derivative or controls to a final volume of 200 µL. Growth controls containing no peptide (i.e., bacteria only = B), inhibition controls containing 50 µg/mL kanamycin (Euromedex, Souffelweyersheim, France) and sterility controls (i.e., medium only) without bacteria were included. After 5 days incubation at 37° C in a humidity chamber to prevent evaporation, 20 µL of a 0.025% (w/v) resazurin solution was added to each well. The microplate was re-incubated until appearance of a color change from blue to pink in the control well (i.e., bacteria without antibiotics). Fluorescence of the metabolite resorufin (λex/λem = 530/590 nm) was measured using a Tecan Spark 10 M ™ multimode microplate reader (Tecan Group Ltd, France). Relative fluorescence units (RFU) were defined as: RFU% = (test well FU/mean FU of control B wells) × 100. MIC50 and MIC90 values were determined by fitting the RFU% sigmoidal dose–response curves in Kaleidagraph 4.2 software (Synergy Software, Reading, PA). The concentration of peptide leading to 50% and 90% inhibition of M. abscessus growth was defined as the MIC50 and MIC90, respectively. All experiments were performed independently at least three times.
# [4] = Cytotoxic assay on human cells (resazurin); format: cell-based; details: A498, 48 h exposure
# Description: as §1
# [5] = test system: M. abscessus CIP 104536 T R variant; test: microbe, parasite or virus in culture; format: cell-based, Mycobacterium abscessus
# Description: as §2, §3
# [6] = S variant, 50% inhibition of in vitro growth, REMA, 5 days
# [7] = S variant, 90% inhibition of in vitro growth, REMA, 5 days
# [8] = Mycobacteroides abscessus, CIP104536, 120 h
SMILES,CC50 [1] [µM],toxicity towards kidney A498 cells (in words) (A498 cells),HC10 (human erythrocytes) [µM],HC50 (human erythrocytes) [µM],mean MIC50 (M. abscessus S and R) [µM],CC50 [2] [µM],"MIC50 [3, 6] [µM]","MIC90 [3, 7] [µM]",CC50 [4] [µM],"hemolytic activity on human erythrocytes (in words, considering HC10) (human erythrocytes)","MIC50 [5, 8] [µM]","MIC90 [5, 8] [µM]","MIC50 [3, 8] [µM]","MIC90 [3, 8] [µM]","MIC50 ([5]; R variant, 50% inhibition of in vitro growth, REMA, 5 days) [µM]","MIC90 ([5]; R variant, 90% inhibition of in vitro growth, REMA, 5 days) [µM]"
CC(C)C[C@@H]1NC(=O)[C@H](C(C)C)NC(=O)CNC(=O)[C@H](CCCNC(=N)N)NC(=O)[C@H](C(C)C)NC(=O)[C@H](CCCNC(=N)N)NC(=O)[C@H](C(C)C)NC(=O)[C@H](Cc2ccc(O)cc2)NC(=O)[C@H](C)NC(=O)[C@H](Cc2ccc(O)cc2)NC(=O)[C@H](C(C)C)NC(=O)[C@@H](NC(=O)[C@H](Cc2c[nH]c3ccccc23)NC(=O)[C@@H](N)CCCNC(=N)N)CSSC[C@@H](C(=O)N[C@@H](Cc2c[nH]c3ccccc23)C(=O)O)NC(=O)[C@H](CCCNC(=N)N)NC(=O)[C@H](CCCNC(=N)N)NC(=O)[C@H](Cc2ccc(O)cc2)NC(=O)[C@H](CCCNC(=N)N)NC(=O)[C@H](C(C)C)NC1=O [Ar-1] (H-RWCVYAYVRVRGVLVRYRRCW-OH; disulfide 3-20),> 100,nontoxic,20.2 ± 1.8,> 100,11.5 ± 1.0,> 100,–,–,–,–,–,–,–,–,–,–
CC[C@@H]1NC(=O)[C@H](C(C)C)NC(=O)[C@H](CCCNC(=N)N)NC(=O)[C@H](C(C)C)NC(=O)CNC(=O)[C@H](CC(N)=O)NC(=O)[C@H](CCCNC(=N)N)NC(=O)[C@H](Cc2ccc(O)cc2)NC(=O)[C@H](C(C)C)NC(=O)[C@H](CC)NC(=O)[C@H](C(C)C)NC(=O)[C@H](Cc2ccc(O)cc2)NC(=O)[C@H](Cc2c[nH]c3ccccc23)NC(=O)[C@@H](NC(=O)[C@H](Cc2ccccc2)NC(=O)CN)CSSC[C@@H](C(=O)N[C@@H](CC(N)=O)C(=O)O)NC(=O)[C@H](CCCNC(=N)N)NC(=O)[C@H](CCCNC(=N)N)NC(=O)[C@H](Cc2ccc(O)cc2)NC1=O [Ar-3(3–20)] (H-GFCWYV[Abu]VYRNGVRV[Abu]YRRCN-OH; disulfide 3-20),> 100,–,> 100,> 100,–,> 100,48.3,> 100,42 ± 1.3,totally inactive,–,–,–,–,–,–
CC[C@H](NC(=O)[C@H](CCCNC(=N)N)NC(=O)[C@H](CCCNC(=N)N)NC(=O)[C@H](Cc1ccc(O)cc1)NC(=O)[C@H](CCCNC(=N)N)NC(=O)[C@@H](NC(=O)[C@H](CC(C)C)NC(=O)[C@@H](NC(=O)CNC(=O)[C@H](CCCNC(=N)N)NC(=O)[C@@H](NC(=O)[C@H](CCCNC(=N)N)NC(=O)[C@@H](NC(=O)[C@H](Cc1ccc(O)cc1)NC(=O)[C@H](C)NC(=O)[C@H](Cc1ccc(O)cc1)NC(=O)[C@@H](NC(=O)[C@H](CC)NC(=O)[C@H](Cc1c[nH]c2ccccc12)NC(=O)[C@@H](N)CCCNC(=N)N)C(C)C)C(C)C)C(C)C)C(C)C)C(C)C)C(=O)N[C@@H](Cc1c[nH]c2ccccc12)C(=O)O [Ar-1-Abu] (H-RW[Abu]VYAYVRVRGVLVRYRR[Abu]W-OH),> 100,nontoxic,> 100,> 100,–,> 100,–,–,–,totally inactive,–,–,–,–,–,–
"NCC[C@H](O)C(=O)N[C@@H]1C[C@H](N)[C@@H](O[C@H]2O[C@H](CN)[C@@H](O)[C@H](O)[C@H]2O)[C@H](O)[C@H]1O[C@H]1O[C@H](CO)[C@@H](O)[C@H](N)[C@H]1O [AMK, amikacin, reference compound]",–,–,–,–,–,–,–,–,–,–,7.4 ± 0.26,10.1,3.9 ± 0.19,5.8,–,–
CC[C@H](NC(=O)[C@H](CCCNC(=N)N)NC(=O)[C@H](CCCNC(=N)N)NC(=O)[C@H](Cc1ccc(O)cc1)NC(=O)[C@H](CC)NC(=O)[C@@H](NC(=O)[C@H](CCCNC(=N)N)NC(=O)[C@@H](NC(=O)CNC(=O)[C@H](CC(N)=O)NC(=O)[C@H](CCCNC(=N)N)NC(=O)[C@H](Cc1ccc(O)cc1)NC(=O)[C@@H](NC(=O)[C@H](CC)NC(=O)[C@@H](NC(=O)[C@H](Cc1ccc(O)cc1)NC(=O)[C@H](Cc1c[nH]c2ccccc12)NC(=O)[C@H](CC)NC(=O)[C@H](Cc1ccccc1)NC(=O)CN)C(C)C)C(C)C)C(C)C)C(C)C)C(=O)N[C@@H](CC(N)=O)C(=O)O [Ar-3-Abu] (H-GF[Abu]WYV[Abu]VYRNGVRV[Abu]YRR[Abu]N-OH),> 100,–,39.3 ± 3.2,> 100,–,> 100,> 100,> 100,36.6 ± 0.9,–,–,–,–,–,> 100,> 100
"CC(C)[C@@H]1NC(=O)CNC(=O)[C@H](CC(N)=O)NC(=O)[C@H](CCCNC(=N)N)NC(=O)[C@H](Cc2ccc(O)cc2)NC(=O)[C@H](C(C)C)NC(=O)[C@@H]2CSSC[C@H](NC(=O)[C@H](C(C)C)NC(=O)[C@H](CCCNC(=N)N)NC1=O)C(=O)N[C@@H](Cc1ccc(O)cc1)C(=O)N[C@@H](CCCNC(=N)N)C(=O)N[C@@H](CCCNC(=N)N)C(=O)N[C@H](C(=O)N[C@@H](CC(N)=O)C(=O)O)CSSC[C@H](NC(=O)[C@H](Cc1ccccc1)NC(=O)CN)C(=O)N[C@@H](Cc1c[nH]c3ccccc13)C(=O)N[C@@H](Cc1ccc(O)cc1)C(=O)N[C@@H](C(C)C)C(=O)N2 [Ar-3] (H-GFCWYVCVYRNGVRVCYRRCN-OH; disulfide 3-20, 7-16)",> 100,–,30.3 ± 2.5,> 100,–,> 100,5.3,12.2,46.7 ± 1.7,–,–,–,–,–,–,–

# — publication PMC10823733, “Promising antibacterial efficacy of arenicin peptides against the emerging opportunistic pathogen Mycobacterium abscessus” (Journal of Biomedical Science, 2024)
